# Measurements reported in patent US12404270B2, “Quinazoline derivatives as LPA receptor 2 inhibitors” (CHIESI FARMACEUTICI S.P.A., priority 2019, dated 2025).
# pIC50: −log10 of the molar value.
# Target: T1, human recombinant LPA2 expressed in CHO cells (Homo sapiens, UniProt Q9HBW0)
# T1 construct: expressed in transfected cells; host or cells: CHO (CHO-hLPA2 cell line)
# Assay: FLIPR calcium mobilization assay, LPA2 antagonism in CHO-hLPA2 cells
# Assay type: cell-based
# Conditions: CHO-hLPA2 cells, inhibition of LPA EC80 Ca2+ response, 30 min pre-incubation; read-out: LPA2 IC50
# Method: The effectiveness of compounds of the present invention as LPA2 antagonist can be determined at the human recombinant LPA2 expressed in CHO cells, using a FLIPR assay in 384 well format.
# CHO-hLPA2 cell lines are cultured in a humidified incubator at 5% CO2 in DMEM/F-12 (1:1) MIXTURE with 2 mM Glutamax, supplemented with 10% of Foetal Bovine Serum, 1 mM Sodium Pyruvate, 11 mM Hepes and 1× Penicillin/Streptomycin. CHO hLPA2 cells are seeded into black walled clear-bottom 384-well plates (#781091, Greiner Bio-One GmbH) at a density of 7,500 cells per well in 50 μl culture media and grown overnight in a 37° C. humidified CO2-incubator. Serial dilutions (1:3 or 1:4, 11 points CRC) of compounds are performed in 100% DMSO at 200× the final concentration. The compounds are diluted 1:50 prior to the experiment with Assay Buffer (20 mM HEPES, 145 mM NaCl, 5 mM KCl, 5.5 mM glucose, 1 mM MgCl2 and 2 mM CaCl2, pH 7.4 containing 0.01% Pluronic F-127) to obtain a solution corresponding to […] the final concentration in the assay (4×, 2% DMSO). The final concentration of DMSO in the assay will be 0.5% in each well. Medium is removed by aspiration and cells are then incubated with 30 μl of a loading solution containing 5 μM of the cytoplasmic Ca2+ indicator Cal-520 AM in Assay Buffer containing 2.5 mM probenecid for 30 min at 37° C. incubator (cell loading). The loaded cell plates are transferred into the FLIPR instrument and calcium responses are monitored during the on-line addition protocols. For testing of compounds, after the cell loading, 10 μl/well of 4× antagonists' solution was added onto the cells. […] Intracellular peak fluorescence values subtracted by baseline fluorescence are exported and analysed to determine IC50 values, respectively. The calcium response is expressed as percentage of the maximal inhibition of the EC80 agonist response.
# The raw data (peak height expressed as relative fluorescence units) are normalized and transformed into “percent of inhibition”. Curve fitting and pIC50 (−Log IC50) estimations are carried out using a four-parameter logistic model using XLfit Software.
# T1 sequence (Q9HBW0 whole entry): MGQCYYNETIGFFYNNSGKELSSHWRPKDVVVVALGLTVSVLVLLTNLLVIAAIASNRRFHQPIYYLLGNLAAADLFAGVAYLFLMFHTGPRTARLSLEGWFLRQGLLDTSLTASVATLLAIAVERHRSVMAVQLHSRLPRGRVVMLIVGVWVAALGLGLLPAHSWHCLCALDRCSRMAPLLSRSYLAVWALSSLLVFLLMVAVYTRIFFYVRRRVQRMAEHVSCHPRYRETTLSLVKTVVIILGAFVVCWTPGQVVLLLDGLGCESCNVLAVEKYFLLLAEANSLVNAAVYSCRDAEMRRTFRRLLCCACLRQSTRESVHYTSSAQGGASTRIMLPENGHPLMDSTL
row,SMILES,pIC50
1,"CC(=O)Nc1ncc(S(=O)(=O)N2CCN(C[C@H](C)Nc3nc(C4CC4)nc4c(C)cccc34)CC2)s1 [Example 19, N-[5-({4-[(2S)-2-[(2-cyclopropyl-8-methylquinazolin-4-yl)amino]propyl]piperazin-1-yl}sulfonyl)-1,3-thiazol-2-yl]acetamide]",> 6.00
2,"COC(=O)c1cccc2c(N[C@@H](C)CN3CCN(S(=O)(=O)c4cnc(NC(C)=O)s4)CC3)ncnc12 [Example 20, methyl 4-{[(2S)-1-{4-[(2-acetamido-1,3-thiazol-5-yl)sulfonyl]piperazin-1-yl}propan-2-yl]amino}quinazoline-8-carboxylate]",7.00 to 8.00
3,"COCC(=O)Nc1ncc(S(=O)(=O)N2CCN(C[C@H](C)Nc3ncnc4c(C(F)(F)F)cccc34)CC2)s1 [Example 24, 2-methoxy-N-[5-({4-[(2S)-2-{[8-(trifluoromethyl)quinazolin-4-yl]amino}propyl]piperazin-1-yl}sulfonyl)-1,3-thiazol-2-yl]acetamide]",> 6.00
4,"COCC(=O)Nc1nc(C)c(S(=O)(=O)N2CCN(C[C@H](C)Nc3ncnc4c(C(F)(F)F)cccc34)CC2)s1 [Example 25, 2-methoxy-N-[4-methyl-5-({4-[(2S)-2-{[8-(trifluoromethyl)quinazolin-4-yl]amino}propyl]piperazin-1-yl}sulfonyl)-1,3-thiazol-2-yl]acetamide]",> 6.00
5,"COC(=O)Nc1ncc(S(=O)(=O)N2CCN(C[C@H](C)Nc3ncnc4c(C(F)(F)F)cccc34)CC2)s1 [Example 26, methyl N-[5-({4-[(2S)-2-{[8-(trifluoromethyl)quinazolin-4-yl]amino}propyl]piperazin-1-yl}sulfonyl)-1,3-thiazol-2-yl]carbamate]",> 6.00
6,"CC(=O)Nc1cc(F)c(S(=O)(=O)N2CCN(C[C@H](C)Nc3ncnc4c(C(F)(F)F)cccc34)CC2)cc1Cl [Example 42, N-[2-chloro-5-fluoro-4-({4-[(2S)-2-{[8-(trifluoromethyl)quinazolin-4-yl]amino}propyl]piperazin-1-yl}sulfonyl)phenyl]acetamide]",> 6.00
7,"Cc1noc(-c2ccc(S(=O)(=O)N3CCN(C[C@H](C)Nc4ncnc5c(C(=O)N(C)C)cccc45)CC3)s2)c1C [Example 43, 4-{[(2S)-1-(4-{[5-(3,4-dimethyl-1,2-oxazol-5-yl)thiophen-2-yl]sulfonyl}piperazin-1-yl)propan-2-yl]amino}-N,N-dimethylquinazoline-8-carboxamide]",> 8.00
8,"Cc1cc(-c2ccc(S(=O)(=O)N3CCN(C[C@H](C)Nc4ncnc5c(C(F)(F)F)cccc45)CC3)o2)on1 [Example 52, N-[(2S)-1-(4-{[5-(3-methyl-1,2-oxazol-5-yl)furan-2-yl]sulfonyl}piperazin-1-yl)propan-2-yl]-8-(trifluoromethyl)quinazolin-4-amine]",7.00 to 8.00
9,"C[C@@H](CN1CCN(S(=O)(=O)c2ccc(-c3ccon3)s2)CC1)Nc1ncnc2c(C(F)(F)F)cccc12 [Example 53, N-[(2S)-1-(4-{[5-(1,2-oxazol-3-yl)thiophen-2-yl]sulfonyl}piperazin-1-yl)propan-2-yl]-8-(trifluoromethyl)quinazolin-4-amine]",7.00 to 8.00
10,"C[C@@H](CN1CCN(S(=O)(=O)c2ccc(-c3ccno3)o2)CC1)Nc1ncnc2c(C(F)(F)F)cccc12 [Example 54, N-[(2S)-1-(4-{[5-(1,2-oxazol-5-yl)furan-2-yl]sulfonyl}piperazin-1-yl)propan-2-yl]-8-(trifluoromethyl)quinazolin-4-amine]",> 6.00
11,"COC(=O)Nc1nc(C)c(S(=O)(=O)N2CCN(C[C@H](C)Nc3ncnc4c([N+](=O)[O-])cccc34)CC2)s1 [Example 55, methyl N-[4-methyl-5-({4-[(2S)-2-[(8-nitroquinazolin-4-yl)amino]propyl]piperazin-1-yl}sulfonyl)-1,3-thiazol-2-yl]carbamate]",> 6.00
12,"Cc1n[nH]c(-c2ccc(S(=O)(=O)N3CCN(C[C@H](C)Nc4ncnc5c(C(F)(F)F)cccc45)CC3)o2)c1C [Example 56, N-[(2S)-1-(4-{[5-(3,4-dimethyl-1H-pyrazol-5-yl)furan-2-yl]sulfonyl}piperazin-1-yl)propan-2-yl]-8-(trifluoromethyl)quinazolin-4-amine]",7.00 to 8.00
13,"COCc1nc(N[C@@H](C)CN2CCN(S(=O)(=O)c3ccc(-c4onc(C)c4C)s3)CC2)c2cccc(C(F)(F)F)c2n1 [Example 61, N-[(2S)-1-(4-{[5-(3,4-dimethyl-1,2-oxazol-5-yl)thiophen-2-yl]sulfonyl}piperazin-1-yl)propan-2-yl]-2-(methoxymethyl)-8-(trifluoromethyl)quinazolin-4-amine]",> 6.00
14,"Cc1cc(-c2ncc(S(=O)(=O)N3CCN(C[C@H](C)Nc4ncnc5c(C(F)(F)F)cccc45)CC3)s2)on1 [Example 63, N-[(2S)-1-(4-{[2-(3-methyl-1,2-oxazol-5-yl)-1,3-thiazol-5-yl]sulfonyl}piperazin-1-yl)propan-2-yl]-8-(trifluoromethyl)quinazolin-4-amine]",7.00 to 8.00
15,"C[C@@H](CN1CCN(S(=O)(=O)c2ccc(-c3ccn[nH]3)o2)CC1)Nc1ncnc2c(C(F)(F)F)cccc12 [Example 67, N-[(2S)-1-(4-{[5-(1H-pyrazol-5-yl)furan-2-yl]sulfonyl}piperazin-1-yl)propan-2-yl]-8-(trifluoromethyl)quinazolin-4-amine]",> 6.00
16,"Cc1noc(-c2ccc(S(=O)(=O)N3CCN(C[C@H](C)Nc4ncnc5c(C(F)(F)F)cccc45)CC3)o2)c1C [Example 68, N-[(2S)-1-(4-{[5-(3,4-dimethyl-1,2-oxazol-5-yl)furan-2-yl]sulfonyl}piperazin-1-yl)propan-2-yl]-8-(trifluoromethyl)quinazolin-4-amine]",7.00 to 8.00
17,"C[C@@H](CN1CCN(S(=O)(=O)c2cc(-c3ccno3)cs2)CC1)Nc1ncnc2c(C(F)(F)F)cccc12 [Example 71, N-[(2S)-1-(4-{[4-(1,2-oxazol-5-yl)thiophen-2-yl]sulfonyl}piperazin-1-yl)propan-2-yl]-8-(trifluoromethyl)quinazolin-4-amine]",7.00 to 8.00
18,"Cc1noc(-c2ccc(S(=O)(=O)N3CCN(C[C@H](C)Nc4ncnc5c(CN(C)C)cccc45)CC3)s2)c1C [Example 74, N-[(2S)-1-(4-{[5-(3,4-dimethyl-1,2-oxazol-5-yl)thiophen-2-yl]sulfonyl}piperazin-1-yl)propan-2-yl]-8-[(dimethylamino)methyl]quinazolin-4-amine]",> 6.00
19,"COC(=O)N(C)c1nc(C)c(S(=O)(=O)N2CCN(C[C@H](C)Nc3ncnc4c(C(F)(F)F)cccc34)CC2)s1 [Example 89, methyl N-methyl-N-[4-methyl-5-({4-[(2S)-2-{[8-(trifluoromethyl)quinazolin-4-yl]amino}propyl]piperazin-1-yl}sulfonyl)-1,3-thiazol-2-yl]carbamate]",7.00 to 8.00
20,"CC(=O)Nc1ccc(S(=O)(=O)N2CCN(C[C@H](C)Nc3ncnc4c(C(F)(F)F)cccc34)CC2)s1 [Example 90, N-[5-({4-[(2S)-2-{[8-(trifluoromethyl)quinazolin-4-yl]amino}propyl]piperazin-1-yl}sulfonyl)thiophen-2-yl]acetamide]",> 6.00
21,"Cc1cc(-c2ccc(S(=O)(=O)N3CCN(C[C@H](C)Nc4ncnc5c(OC(=O)N(C)C)cccc45)CC3)s2)on1 [Example 91, 4-{[(2S)-1-(4-{[5-(3-methyl-1,2-oxazol-5-yl)thiophen-2-yl]sulfonyl}piperazin-1-yl)propan-2-yl]amino}quinazolin-8-yl N,N-dimethylcarbamate]",7.00 to 8.00
